US12358904B2, “Inhibitors of TYK2” (Atomwise Inc., priority 2023, dated 2025)

Key:
GM-CSF/pSTAT5 = test: GM-CSF induced pSTAT5 assay in CellSensor irf1-bla TF-1 cells; format: cell-based; conditions: Homo sapiens, GM-CSF 1 ng/mL, read-out: Cellular selectivity (GM-CSF induced pSTAT5)
Method: The CellSensor irf1-bla TF-1 cell line (LifeTechnologies, K1657) was cultured in RPMI 1640 Medium (Invitrogen 72400-047), 10% Fetal Bovine Serum (Invitrogen, 26400044), 1 mM Sodium pyruvate (Life Technologies, 11360039), 1% MEM NEAA (Life Technologies, 11140-035), 2 ng/ml of human recombinant GM-CSF (Fisher, PHC2015), 1% Penicillin/Streptomycin (Life Technologies, 15140-122) and 5 μg/ml of Blasticidin (ThermoFisher, A1113903).
The cell line was seeded in a T75 flask at 13×10^6 cells/50 mL in starvation medium (Opti-MEM™ I Reduced Serum Medium, no phenol red (Life Technologies, 11058-021), 1 mM Na pyruvate (Life Technologies, 11360039), 1% MEM NEAA (Life Technologies, 11140-035), and 1% Penicillin/Streptomycin (Life Technologies, 15140-122)) for 16 hours at 37° C. under 5% CO2 the day before the assay.
For the assay, CellSensor irf1-bla TF-1 cells were seeded at 30 000 cells/32 μL (starvation medium)/well in a 384-well plate.
Compounds were added on the cells in 4 μL (starvation medium)/well at 10× the final concentration. They were incubated for 30 minutes at 37° C.
Human recombinant carrier-free GM-CSF (ThermoFisher, ref PHC2015) was added to the wells in 4 μL (starvation medium)/well at 10×. The final concentration was 1 ng/mL. Control wells without GM-CSF treatment were added. Plates were incubated for 5 hours at 37° C.
6× LiveBlazer-FRET substrate (Invitrogen, K1085) was added to the wells at 8 μL/well. The substrate was prepared shortly before use by mixing 6 μL of solution A and 60 μL of solution B to 934 μL of solution C. Plates were incubated for 2.5 hours at room temperature in the dark. The plates were read on an Envision (Perkin Elmer) with an excitation at a wavelength of 409 nm and two wavelengths for the emission 520 nm and 450 nm. The ratio between the […] emission was used to calculate the IC50s.
The IC50 for the inhibition of pSTAT5 was calculated with the Xlfit software using the 4 Parameter Logistic Model or Sigmoidal Dose-Response Model (model 205).

IL-6/pSTAT3 = test: IL-6 induced pSTAT3 assay in TF-1 cells; format: cell-based; conditions: Homo sapiens, read-out: Cellular selectivity (IL-6/pSTAT3)
Method: The following example describes the IL-6 induced pSTAT3 assay used to determine the cellular selectivity (IL-6/pSTAT3) of the TYK2 inhibitors.
TF-1 (ATCC®, CRL-2003™) cells were cultured in RPMI 1640 Medium, with GlutaMAX™ Supplement, HEPES for Cell Culture (Life Technologies, 72400047), 10% Fetal Bovine Serum (Life Technologies, 26400044), 2 ng/mL human recombinant GM-CSF (Life Technologies, PHC2013), 1 mM Sodium pyruvate (Life Technologies, 11360039), 1% MEM NEAA (Life Technologies, 11140-035), 1% Penicillin/Streptomycin (Life Technologies, 15140-122).
TF-1 (70×10^6) cells were starved overnight in T01 50 flasks (Opti-MEM™ I Reduced Serum Medium, no phenol red (Life Technologies, 11058-021), 1 mM Na pyruvate (Life Technologies, 11360039), 1% MEM NEAA (Life Technologies, 11140-035), and 1% Penicillin/Streptomycin (Life Technologies, 15140-122)) then seeded into 96-well TPP plates (150 000 cell/well) and incubated with test compounds (Final Concentration [nM] 10000-0.05) for 30 minutes at 37° C. […] Stimulation was terminated by addition of lysis buffer (MSD K150SVD) and pSTAT3 detection was measured with Phospho-STAT3 (Tyr705) Kit MSD K150SVD)) according to manufacturer's instruction. Briefly, cell lysates were added to pre-blocked plates, sealed, and shake for 1 hour at room temperature. Plates were then washed and incubated with detection antibody for 1 hour at room temperature. After washing, Read Buffer was added, and plates were read on MSD instrument (Model 1300 MSD Quickplex SQ 120).

IL-12/pSTAT4 = test: IL-12 induced pSTAT4 assay in NK-92 cells; format: cell-based; conditions: Homo sapiens, NK92, IL-12 stimulation, read-out: Cellular potency (IL-12/pSTAT4)
Procedure, shortened: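 Overnight-starved NK-92 cells (20K/well) pre-incubated with compounds (1000 to 0.05 nM final) 30 min at 37 °C, then stimulated with IL-12 (10 ng/ml) for 30 min at 37 °C. Lysates assayed for pSTAT4 (Tyr693) by MSD electrochemiluminescence.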

TYK2-JH2 = molecular target: T1, TYK2-JH2 (Homo sapiens, UniProt P29597); test: TYK2-JH2 HTRF binding assay (ligand efficiency); conditions: calculated from IC50 of the TYK-JH2 binding assay (Equation 1)
T1 construct: TYK JH2 enzyme mix (ChemPartnec CP20210818A-BV); purchased ChemPartner CP20210818A-BV
Procedure, shortened: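 His-tagged TYK2 JH2 (0.5 nM) preincubated 10 min at RT with compound (0.1–0.000005 μM) in 20 mM HEPES pH 7.5, 10 mM MgCl2, 0.01% Triton X-100, 1 mM DTT; then 35 nM tracer plus anti-6HIS Tb cryptate, 60 min RT. TR-FRET read (Ex340/Em495/520); IC50 converted to ligand efficiency.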

T1 sequence (P29597 589-875 limits assumed): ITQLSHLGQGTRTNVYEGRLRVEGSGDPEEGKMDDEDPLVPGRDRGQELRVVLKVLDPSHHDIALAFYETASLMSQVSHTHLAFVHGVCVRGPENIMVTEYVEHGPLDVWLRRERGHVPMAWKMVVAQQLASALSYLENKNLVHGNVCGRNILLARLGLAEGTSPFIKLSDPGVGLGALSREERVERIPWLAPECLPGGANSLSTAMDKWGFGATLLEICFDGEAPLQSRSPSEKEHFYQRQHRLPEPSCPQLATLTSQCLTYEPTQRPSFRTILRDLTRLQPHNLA

SMILES | IC50 (GM-CSF/pSTAT5) [µM] | IC50 (IL-6/pSTAT3) [µM] | IC50 (IL-12/pSTAT4) [µM] | Ligand Efficiency (TYK2-JH2)
CC(C)(NC1COC1)c1ccc(Nc2cc(Nc3ccccc3S(C)(=O)=O)ncn2)nc1 [Compound 39, N^4-(2-(methylsulfonyl)phenyl)-N^6-(5-(2-(oxetan-3-ylamino)propan-2-yl)127yridine-2-yl)pyrimidine-4,6-diamine] | > 10 | > 10 | < 0.1 | †† (††: 0.37-0.39)
CC(c1ccc(Nc2cc(Nc3ncccc3S(C)(=O)=O)ncn2)nc1)N1CC(F)C1 (stereo not drawn) [Compound 22, N^4-(5-(1-(3-fluoroazetidin-1-yl)ethyl)102yridine-2-yl)-N^6-(3-(methylsulfonyl)102yridine-2-yl)pyrimidine-4,6-diamine] | > 10 | 4 to 10 | < 0.1 | ††† (†††: >0.39)
Cc1ccnc(Nc2cc(Nc3ccccc3S(C)(=O)=O)ncn2)c1 [Compound 44, N^4-(4-methylpyridin-2-yl)-N^6-(2-(methylsulfonyl)phenyl) pyrimidine-4,6-diamine] | > 10 | > 10 | < 0.1 | ††† (†††: >0.39)
Cc1ccnc(Nc2cc(Nc3ccccc3C(N)=O)ncn2)c1 [Compound 45, 2-((6-((4-methylpyridin-2-yl)amino)pyrimidin-4-yl)amino) benzamide] | < 4 | < 4 | < 0.1 | ††† (†††: >0.39)
CS(=O)(=O)c1ccccc1Nc1cc(Nc2ccc(CNC3CCOC3)cn2)ncn1 (stereo not drawn) [Compound 28, N^4-(2-(methylsulfonyl)phenyl)-N^6-(5-((tetrahydrofuran-3-ylamino)methyl)110yridine-2-yl)pyrimidine-4,6-diamine] | > 10 | > 10 | < 0.1 | †† (††: 0.37-0.39)
C[C@@H](c1ccc(Nc2cc(Nc3ncccc3S(C)(=O)=O)ncn2)nc1C(F)(F)F)N1CC2(COC2)C1 [Compound 11, I-N^4-(5-(1-(2-oxa-6-azaspiro[3.3]heptan-6-yl)ethyl)-6-(trifluoromethyl)90yridine-2-yl)-N^6-(3-(methylsulfonyl)90yridine-2-yl)pyrimidine-4,6-diamine] | > 10 | < 4 | < 0.1 | †† (††: 0.37-0.39)
CS(=O)(=O)c1ccccc1Nc1cc(Nc2ccc3c(n2)CCCC3N2CC3(CCOCC3)C2)ncn1 (stereo not drawn) [Compound 27, N^4-(5-(7-oxa-2-azaspiro[3.5]nonan-2-yl)-5,6,7,8-tetrahydroquinolin-2-yl)-N^6-(2-(methylsulfonyl)phenyl)pyrimidine-4,6-diamine] | > 10 | > 10 | < 0.1 | † (†: <0.37)
Cc1cncc(Nc2cc(Nc3ccccc3C(N)=O)ncn2)n1 [Compound 49, 2-(6-(6-methylpyrazin-2-ylamino)pyrimidin-4-ylamino)benzamide] | > 10 | < 4 | 0.1 to 1 | ††† (†††: >0.39)
Cc1cc(Nc2cc(Nc3ncccc3S(C)(=O)=O)ncn2)ncc1NC1(C)COC1 [Compound 23, N^4-(4-methyl-5-((3-methyloxetan-3-yl)amino)103yridine-2-yl)-N^6-(3-(methylsulfonyl)103yridine-2-yl)pyrimidine-4,6-diamine] | > 10 | > 10 | < 0.1 | ††† (†††: >0.39)
CC(c1ccc(Nc2cc(Nc3ncccc3S(C)(=O)=O)ncn2)nc1)N1CC2(CC(F)C2)C1 (stereo in doubt) [Compound 10, N^4-(5-((1R)-1-(6-fluoro-2-azaspiro[3.3]heptan-2-yl)ethyl) 87yridine-2-yl)-N^6-(3-(methylsulfonyl)87yridine-2-yl)pyrimidine-4,6-diamine] | > 10 | 4 to 10 | < 0.1 | ††† (†††: >0.39)
C[C@H]1CN(C2CC2)CCN1c1ccc(Nc2cc(Nc3ncccc3S(C)(=O)=O)ncn2)nc1 [Compound 8, (S)—N^4-(5-(4-cyclopropyl-2-methylpiperazin-1-yl)85yridine-2-yl)-N^6-(3-(methylsulfonyl)85yridine-2-yl)pyrimidine-4,6-diamine] | < 4 | 4 to 10 | < 0.1 | ††† (†††: >0.39)
CS(=O)(=O)c1cccnc1Nc1cc(Nc2ccc3c(n2)CCC[C@@H]3N2CC3(COC3)C2)ncn1 [Compound 5, I-N^4-(5-(2-oxa-6-azaspiro[3.3]heptan-6-yl)-5,6,7,8-tetrahydroquinolin-2-yl)-N^6-(3-(methylsulfonyl)81yridine-2-yl)pyrimidine-4,6-diamine] | > 10 | 4 to 10 | < 0.1 | †† (††: 0.37-0.39)
CS(=O)(=O)c1cccnc1Nc1cc(Nc2ccc3c(n2)CC[C@@H]3N2CC3(COC3)C2)ncn1 [Compound 9, N^4-((5S)-5-(2-oxa-6-azaspiro[3.3]heptan-6-yl)-6,7-dihydro-5H-cyclopenta[b]86yridine-2-yl)-N^6-(3-(methylsulfonyl)86yridine-2-yl)pyrimidine-4,6-diamine] | > 10 | > 10 | < 0.1 | ††† (†††: >0.39)
Cc1cnnc(Nc2cc(Nc3ccccc3C(N)=O)ncn2)c1 [Compound 47, 2-((6-((5-methylpyridazin-3-yl)amino)pyrimidin-4-yl)amino) benzamide] | > 10 | < 4 | < 0.1 | ††† (†††: >0.39)
CC1(Nc2ccc(Nc3cc(Nc4ncccc4S(C)(=O)=O)ncn3)nc2)COC1 [Compound 21, N^4-(5-((3-methyloxetan-3-yl)amino)102yridine-2-yl)-N^6-(3-(methylsulfonyl)102yridine-2-yl)pyrimidine-4,6-diamine] | > 10 | 4 to 10 | < 0.1 | ††† (†††: >0.39)
